Laboratory results published in patent US20160281050A1, “METHODS FOR TREATING A CULTURE OF HAEMATOCOCCUS PLUVIALIS FOR CONTAMINATION USING SALT AND HYDROGEN PEROXIDE” (HELIAE DEVELOPMENT LLC, priority 2015, published 2016).

Tests used:
pure chytrid culture = assay: Chytrid tolerance: pure chytrid culture in well plate, observed under a microscope (Examples 13-14); type: cell-based
Description: Experiments were performed to determine chytrid tolerance to bleach, salt, Lufenuron (chemical biocide), and Rid Fungus (blend of natural organic herbs) for evaluation as a treatment for chytrids. A pure chytrid culture in a well plate was treated every 24 hours and observed under a microscope to determine the effect. An untreated culture was used as a control for comparison purposes. Qualitative assessments and quantitative estimates were made by visual observation under a microscope.
Several concentrations of salt and Rid Fungus (blend of organic herbs) were further investigated as a chytrid treatment, as in Example 13. A pure chytrid culture in a well plate was treated and visually observed under a microscope to determine the effect. An untreated culture was used as a control for comparison purposes.

chytrids = assay: % chytrid infection in 230 L reactors, salt treatment (Example 12); type: cell-based
Description: This test was done side by side in flasks (0.1 L) and in reactors located in a greenhouse operating in conditions: reactor volume of 230 L; Daily PAR of 20 mol m^−2 d^−1; pH (not measured); and paddlewheel speed of 21 RPM. […] The flask cultures were mixed by shaking at 140 rpm and received 300-400 μmol/m^2 s of photosynthetically active radiation (PAR) in 12 hour light cycles and constant supply of 2.5% CO2. The motility of the culture was monitored by visual observation under a microscope. […] Nine 230 L reactors were also seeded with culture from bioreactor #2410 on the same day as the flasks and brought to 2 ppt concentration of salt. Once motility of the cells was reduced to <10% (day 3 of culture for flasks and day 2 for 230 L reactors) the level of salt was elevated to a point between 4-18 ppt and compared to the culture in two reactors remaining at 2 ppt salt. Flasks and 230 L reactors were monitored for percentage of cell lysis via visual observation under a microscope, culture dry weight (biomass accumulation in g/L), and percentage of chytrid infection via visual observation under a microscope. Carotenoid production, a proxy for determining astaxanthin, was quantified every other day of culture in the 230 L reactors using the UV method.

[Cl-].[Na+] [NaCl, sodium chloride]
microscope observation of pure chytrid culture (pure chytrid culture; Example 13, 20 ppt, after 1 hour): clumped sporangia and zoospores | microscope observation of pure chytrid culture (pure chytrid culture; Example 13, 20 ppt, after 24 hours): Wilting sporangia and no zoospores | microscope observation of pure chytrid culture (pure chytrid culture; Example 13, 20 ppt, after 48 hours): bacteria with shriveled zoospores and sporangia | microscope observation of pure chytrid culture (pure chytrid culture; Example 13, 20 ppt, after 72 hours): no zoospores or sporangia | microscope observation of pure chytrid culture (pure chytrid culture; Example 14, 5 ppt, after 1 hour): a less dense mass of zoospores with some being motile but sluggish | microscope observation of pure chytrid culture (pure chytrid culture; Example 14, 5 ppt, after 4.5 hours): A mix of non-motile and motile zoospores | microscope observation of pure chytrid culture (pure chytrid culture; Example 14, 10 ppt, after 1 hour): a mass of zoospores at the same density as the 5 ppt treatment but with all being non-motile | microscope observation of pure chytrid culture (pure chytrid culture; Example 14, 10 ppt, after 4.5 hours): Non-motile zoospores only | microscope observation of pure chytrid culture (pure chytrid culture; Example 14, 20 ppt, after 1 hour): a mass of zoospores less dense than mass of the 5 and 10 ppt treatments but with all being non-motile | microscope observation of pure chytrid culture (pure chytrid culture; Example 14, 20 ppt, after 4.5 hours): Non-motile zoospores only | % Chytrid infection in 230L reactors (chytrids; 4 ppt, 2 d): 0.00% | % Chytrid infection in 230L reactors (chytrids; 4 ppt, 3 d): 1.67% | % Chytrid infection in 230L reactors (chytrids; 4 ppt, 4 d): 0.00% | % Chytrid infection in 230L reactors (chytrids; 4 ppt, 5 d): 0.00% | % Chytrid infection in 230L reactors (chytrids; 4 ppt, 6 d): 0.00% | % Chytrid infection in 230L reactors (chytrids; 4 ppt, 7 d): 1.67% | % Chytrid infection in 230L reactors (chytrids; 4 ppt, 8 d): 0.00% | % Chytrid infection in 230L reactors (chytrids; 4 ppt, 9 d): 11.67% | % Chytrid infection in 230L reactors (chytrids; 4 ppt, 10 d): 30.00% | % Chytrid infection in 230L reactors (chytrids; 4 ppt, 11 d): 36.67% | % Chytrid infection in 230L reactors (chytrids; 4 ppt, 12 d): 65.00% | % Chytrid infection in 230L reactors (chytrids; 5 ppt, 2 d): 1.67% | % Chytrid infection in 230L reactors (chytrids; 5 ppt, 3 d): 0.00% | % Chytrid infection in 230L reactors (chytrids; 5 ppt, 4 d): 1.67% | % Chytrid infection in 230L reactors (chytrids; 5 ppt, 5 d): 0.00% | % Chytrid infection in 230L reactors (chytrids; 5 ppt, 6 d): 0.00% | % Chytrid infection in 230L reactors (chytrids; 5 ppt, 7 d): 8.33% | % Chytrid infection in 230L reactors (chytrids; 5 ppt, 8 d): 0.00% | % Chytrid infection in 230L reactors (chytrids; 5 ppt, 9 d): 10.00% | % Chytrid infection in 230L reactors (chytrids; 5 ppt, 10 d): 3.33% | % Chytrid infection in 230L reactors (chytrids; 5 ppt, 11 d): 13.33% | % Chytrid infection in 230L reactors (chytrids; 5 ppt, 12 d): 28.33% | % Chytrid infection in 230L reactors (chytrids; 6 ppt, 2 d): 1.67% | % Chytrid infection in 230L reactors (chytrids; 6 ppt, 3 d): 0.00% | % Chytrid infection in 230L reactors (chytrids; 6 ppt, 4 d): 1.67% | % Chytrid infection in 230L reactors (chytrids; 6 ppt, 5 d): 1.67% | % Chytrid infection in 230L reactors (chytrids; 6 ppt, 6 d): 1.67% | % Chytrid infection in 230L reactors (chytrids; 6 ppt, 7 d): 5.00% | % Chytrid infection in 230L reactors (chytrids; 6 ppt, 8 d): 3.33% | % Chytrid infection in 230L reactors (chytrids; 6 ppt, 9 d): 0.00% | % Chytrid infection in 230L reactors (chytrids; 6 ppt, 10 d): 1.67% | % Chytrid infection in 230L reactors (chytrids; 6 ppt, 11 d): 0.00% | % Chytrid infection in 230L reactors (chytrids; 6 ppt, 12 d): 15.00% | % Chytrid infection in 230L reactors (chytrids; 7 ppt, 2 d): 3.33% | % Chytrid infection in 230L reactors (chytrids; 7 ppt, 3 d): 0.00% | % Chytrid infection in 230L reactors (chytrids; 7 ppt, 4 d): 0.00% | % Chytrid infection in 230L reactors (chytrids; 7 ppt, 5 d): 1.67% | % Chytrid infection in 230L reactors (chytrids; 7 ppt, 6 d): 0.00% | % Chytrid infection in 230L reactors (chytrids; 7 ppt, 7 d): 5.00% | % Chytrid infection in 230L reactors (chytrids; 7 ppt, 8 d): 1.67% | % Chytrid infection in 230L reactors (chytrids; 7 ppt, 9 d): 3.33% | % Chytrid infection in 230L reactors (chytrids; 7 ppt, 10 d): 5.00% | % Chytrid infection in 230L reactors (chytrids; 7 ppt, 11 d): 0.00% | % Chytrid infection in 230L reactors (chytrids; 7 ppt, 12 d): 3.33% | % Chytrid infection in 230L reactors (chytrids; 8 ppt, 2 d): 0.00% | % Chytrid infection in 230L reactors (chytrids; 8 ppt, 3 d): 0.00% | % Chytrid infection in 230L reactors (chytrids; 8 ppt, 4 d): 0.00% | % Chytrid infection in 230L reactors (chytrids; 8 ppt, 5 d): 1.67% | % Chytrid infection in 230L reactors (chytrids; 8 ppt, 6 d): 0.00% | % Chytrid infection in 230L reactors (chytrids; 8 ppt, 7 d): 0.00% | % Chytrid infection in 230L reactors (chytrids; 8 ppt, 8 d): 0.00% | % Chytrid infection in 230L reactors (chytrids; 8 ppt, 9 d): 0.00% | % Chytrid infection in 230L reactors (chytrids; 8 ppt, 10 d): 1.67% | % Chytrid infection in 230L reactors (chytrids; 8 ppt, 11 d): 1.67% | % Chytrid infection in 230L reactors (chytrids; 8 ppt, 12 d): 3.33% | % Chytrid infection in 230L reactors (chytrids; 10 ppt, 2 d): 0.00% | % Chytrid infection in 230L reactors (chytrids; 10 ppt, 3 d): 0.00% | % Chytrid infection in 230L reactors (chytrids; 10 ppt, 4 d): 1.67% | % Chytrid infection in 230L reactors (chytrids; 10 ppt, 5 d): 0.00% | % Chytrid infection in 230L reactors (chytrids; 10 ppt, 6 d): 0.00% | % Chytrid infection in 230L reactors (chytrids; 10 ppt, 7 d): 0.00% | % Chytrid infection in 230L reactors (chytrids; 10 ppt, 8 d): 0.00% | % Chytrid infection in 230L reactors (chytrids; 10 ppt, 9 d): 1.67% | % Chytrid infection in 230L reactors (chytrids; 10 ppt, 10 d): 0.00% | % Chytrid infection in 230L reactors (chytrids; 10 ppt, 11 d): 6.67% | % Chytrid infection in 230L reactors (chytrids; 10 ppt, 12 d): 3.33% | % Chytrid infection in 230L reactors (chytrids; 18 ppt, 2 d): 0.00% | % Chytrid infection in 230L reactors (chytrids; 18 ppt, 3 d): 0.00% | % Chytrid infection in 230L reactors (chytrids; 18 ppt, 4 d): 0.00% | % Chytrid infection in 230L reactors (chytrids; 18 ppt, 5 d): 3.33% | % Chytrid infection in 230L reactors (chytrids; 18 ppt, 6 d): 0.00% | % Chytrid infection in 230L reactors (chytrids; 18 ppt, 7 d): 0.00% | % Chytrid infection in 230L reactors (chytrids; 18 ppt, 8 d): 1.67% | % Chytrid infection in 230L reactors (chytrids; 18 ppt, 9 d): 3.33% | % Chytrid infection in 230L reactors (chytrids; 18 ppt, 10 d): 0.00% | % Chytrid infection in 230L reactors (chytrids; 18 ppt, 11 d): 1.67% | % Chytrid infection in 230L reactors (chytrids; 18 ppt, 12 d): 1.67% | chytrid infection (chytrids; treatments at 7 ppt and above in 230 L reactors): 5-10%
